A short description of series [1]: Solubility to tap water of the substance obtained by azeotrope at 70° C. The series is classed as physicochemical. Particulars: surfactant HD, tap water of 5 mL. Here is the method: In the undiluted solution of octadecyl dimethyl (3-trimethoxysilyl propyl) ammonium chloride (hereinafter referred to as QAS) which is an antimicrobial detergent, hexadecyl trimethyl ammonium (hereinafter referred to as HD), which was a cationic surfactant, was added, and for the azeotrope, a sample solution with the addition of acetone or ethanol was prepared, azeotrope was performed at 70° C. […] In the resultant gelated substance, tap water of 5 mL was added, but gelation advanced in many samples highly and solidification was occurred within several minutes to 1 hour, and those were not suitable for practical use (Table 1).

The nature of series [2]: Solubility to tap water and behavior after dissolution of lyophilized samples. The series is classed as physicochemical. Particulars: lyophilization 15 hours. Here is the method: On the other hand, such a phenomenon was not seen when ethanol was added (Table 1). Therefore, in the conditions like the ethanol addition groups, the sample was prepared by using t-butyl alcohol in substitution for ethanol, and lyophilized for 15 hours. As a result, solidification (powderization) by lyophilization was possible in both samples. In addition, the solubility to tap water was good, and after dissolution, gelation or the like has not also happened (Table 2). Furthermore, ethanol or t-butyl alcohol was not added, and in the system which only HD was added, the solubility to tap water was good, and after dissolution, gelation or the like had not also happened (Table 2). In the system which as substitution for HD, a nonionic surfactant, polyoxyethylene sorbitan monolaurate (hereinafter referred to as PO) was added, this system was also examined, and then a similar good result was obtained.

Setting [3] is: surfactant HD, solvent t-Butyl alcohol.
[4] abbreviates: surfactant HD, solvent: nothing.
Setting [5] is: surfactant PO, solvent: nothing.

Consider `CCCCCCCCCCCCCCCCCC[N+](C)(C)CCC[Si](OC)(OC)OC.[Cl-]` [QAS, octadecyl dimethyl (3-trimethoxysilyl propyl) ammonium chloride], for which the “Solubility to tap water” value in series [1] (solvent addition Acetone) was “Gel→Consolidate”; in series [1] (solvent addition: nothing), “Gel→Consolidate”; in series [2] (surfactant HD, solvent Ethanol) it was “No problem”; in series [2] (setting [3]) it was “No problem”; in series [2] (setting [4]) it was “No problem”; in series [2] (setting [5]), “No problem”. For the same molecule, the Behavior after dissolution entry in series [2] (surfactant HD, solvent Ethanol) is given as “No problem”; in series [2] (setting [3]) it was “No problem”; in series [2] (setting [4]) it was “No problem”; in series [2] (setting [5]), “No problem”.
